Entries after “also recorded” stand apart in the source; their conditions may differ.
Key:
[1] = system: C. elegans worms in 200 mM paraquat (PQ); assay: Paraquat survival assay; type: in vivo; conditions: 200 mM PQ
Procedure: C. elegans strains were grown at 21° C. on nematode growth media (NGM) agar plates containing diamines or vehicle as a control. The NGM agar plates were prepared as described in L. Livshits, E. Gross, A method for measuring sulfide toxicity in the nematode Caenorhabditis elegans, MethodsX 4 (2017) 250-255. A suspension of 3 g sodium chloride (NaCl), 20 g Bacto agar, and 2.5 g of Bacto peptone in 1 L of double distilled water (DDW) was mixed and autoclaved. Then, the medium was cooled to 55° C. and supplemented with 1 ml of 100 mM CaCl2), 1 ml of 100 mM MgSO4, 25 ml of 1 M potassium phosphate buffer pH 6, and 1 ml of 5 mg/ml cholesterol (the cholesterol was dissolved in ethanol). Diamines or DDW (vehicle) were added to the NGM-agar solution. For RNAi NGM-agar plates, Isopropyl β-D-1-thiogalactopyranoside (IPTG) and ampicillin were added to a final concentration of 1 mM and 100 μg/ml, respectively. The NGM-agar solution was thoroughly vortex mixed and immediately poured into 35 mm petri dish (4 ml per plate). NGM-plates were covered with aluminum foil and dried for 24 h at room temperature (RT). 24 h before the experiment, plates were seeded with 100 μl bacteria (OD600=0.6, OP50 or HT115(DE3)). The seeded plates were covered with aluminum foil and dried for 24 h at RT.
To get synchronized C. elegans larvae, the method described in W. B. Wood, The Nematode Caenorhabditis Elegans, Cold Spring Harbor Laboratory 1988, was performed. In brief, hypochlorite/NaOH solution was made by mixing 1 ml of 5% solution of sodium hypochlorite, 800 μl of 2.5 N NaOH and 2.2 ml DDW to final concentrations of 0.5 N NaOH and 1.25% sodium hypochlorite. M9 buffer was made by dissolving 3 g KH2PO4, 6 g Na2HPO4, 5 g NaCl and 1 ml of MgSO4 from 1M stock in 1 litter of DDW. The solution pH was adjusted to 7 and sterilizes by filtration (with a 0.2 µm filter bottle). Gravid hermaphrodites was washed from the NGM plates into a 15 ml tube with M9 buffer and centrifuged for 2 min at 900×g, RT. Liquid was removed until 2 ml worms' suspension was left and added 2 ml of hypochlorite/NaOH solution. A 5 ml syringe with a 21-gauge needle was used to aspirate the worm suspension back and forth several times. After 3 min it was observed the state of the worms using a dissecting stereoscope. At this stage, approximately 50% of worms should appear broken and many of the embryos should float in the solution. The embryos were immediately sedimented using centrifugation (1690×g for 2 min) and carefully removed the supernatant and add 10 ml of M9 buffer. This washing step was repeated three additional times. The supernatant was removed until 2 ml remains and rotated the tube for 16 h at RT. The hatched L larvae were collected by centrifugation (1690×g for 3 min) and put ˜80 L in each seeded NGM assay plate. Grow the L1 (Day 1) for 3 days until they become young adults (Day 3).

[2] = system: dct-1(tm376) mutants / dct-1 RNAi worms; assay: Paraquat survival assay in dct-1 deletion mutant or RNAi knockdown worms; type: in vivo, C. elegans
Procedure: FIGS. 9A-9D show the protective activity of 1,8-Diaminooctane is mitophagy-dependent. (FIG. 9A) is a schematic illustration of the mitophagy pathway in C. elegans. Survival curves presenting the effect of dct-1 and pink-1 deletion mutations (FIG. 9B, FIG. 9C) or RNAi knockdowns (FIG. 9D) on worms' viability in 200 mM PQ at indicated time points. Statistical analysis on PQ survival curves were performed using the log-rank (Mantel-Cox) test with Prism 7 software. The plots represent the average of six independent experiments. The minimum number of worms examined for each experimental condition is 133.
In the first one, the effect of 1,8-Diaminooctane on the survival of dct-1 and pink-1 mutants in PQ was investigated. DCT-1 is an orthologue of the mammalian NIX/BNIP3L and BNIP3 that act as mitophagy receptors, and PINK-1 is a mitochondrial phosphatase and tensin (PTEN)-induced kinase 1 which has a critical function in mitophagy (see K. Palikaras, E. Lionaki, N. Tavernarakis, Coordination of mitophagy and mitochondrial biogenesis during ageing in C. elegans, Nature 521 (7553) (2015) 525-8; and FIG. 3A). It was hypothesized that if mitophagy is essential for the protective effect of 1,8-Diaminooctane, then dct-1 and pink-1 mutants will become sensitive to PQ following treatment. […] The second experiment that was performed was an RNAi experiment. Here, dct-1 and pink-1 were selectively knocked down using RNAi. The RNAi results recapitulated the one of the mutant experiments ([…]). […] Importantly, the RNAi phenotype was less strong compared to the one observed with the deletion mutants. […] The difference between the results could be due to incomplete suppression of dct-1 and pink-1 in the RNAi treated worms. Together, our results verify that 1,8-Diaminooctane protects against oxidative stress by activating mitophagy.

NCCCCCCCCN [1,8-Diaminooctane]
survival of worms in paraquat ([1]; 0.0625, 0.25, 1 and 4 mM (all treatments), L1 to young adult (~48 h), vs distilled-water control, log-rank p<0.0001): increase the survival of worms significantly; also recorded: significantly increases the resistance to paraquat toxicity in a dose-dependent manner | survival of worms in paraquat ([1]; compound at 4 mM, vs control worms): best protection | survival of worms in paraquat ([1]; tested at 0.0625 mM and 0.25 mM, not split): significantly improved the survival of worms in PQ | survival in PQ of treated worms, RNAi against dct-1 ([2]; compared to control worms that did not get the treatment, p<0.0001): significantly higher than control worms | resistance to PQ after treatment, dct-1(tm376) mutants ([2]; compared to treated wild-type worms, 200 mM PQ, p<0.0001): significantly less resistant to PQ | protective effect in PQ, RNAi against dct-1 ([2]; compared to worms treated with mock RNAi (empty vector)): significantly lesser
